# Reference: patent publication US6020334A, “Piperazinones, their production and use” (Takeda Chemical Industries, Ltd., priority 1995, dated 2000)
# Test system: platelet aggregation by ADP
# Assay: Platelet aggregation in vitro (inhibition of ADP-induced aggregation of guinea pig PRP, Born's method)
# Type: cell-based, guinea pigs
# Settings: Cavia porcellus, ADP 0.6-1 μM, 37° C.
# Protocol: Determination of Platelet Aggregation in Vitro
# Blood was collected from abdominal aorta of guinea pigs under anesthesia with pentobarbital (20 mg/kg, i.p.) using sodium citrate as an anticoagulant (final concentration: 0.315%). The sodium citrate--supplemented blood was centrifuged at 950 rpm for 10 minutes and 2,000 rpm for 10 minutes respectively at room temperature to obtain platelet rich plasma (PRP) and platelet poor plasma (PPP). The number of platelet was counted an automatic platelet counter (Sysmex E2500, Toaiyo-denshi). PRP was diluted with PPP to adjust the number of platelets to be 500,000/μl. Platelet aggregation was measured as follows, in accordance with Born's method (Nature 194: 927, 1962), using an 8-channel aggregometer (NBS HEMA TRACER VI, Niko Bioscience Inc.): The PRP (250 μl) was incubated at 37° C. for 2 minutes, to which was then added 25 μl of a test drug solution. Two minutes later, 25 μl of an agent (ADP) for causing agglutination. The effect of the test drug was shown by the inhibition rate of the maximum aggregation rate of the test group against that of the control group. ADP was used in the minimum concentration (0.6-1 μM) capable of obtaining maximum aggregation.
row,SMILES,IC50
1,N=C(N)c1ccc(C(=O)NCC(=O)N2CCN(CC(=O)O)C(=O)[C@@H]2CCCN)cc1 [compound 1],520 nM
2,N=C(N)c1ccc(C(=O)NCCC[C@H]2C(=O)N(CC(=O)O)CCN2C(=O)CNC(=O)c2ccc(C(=N)N)cc2)cc1 [compound 2],37 nM
3,COc1ccc(C[C@H](NC(=O)c2ccc(C(=N)N)cc2)C(=O)N2CCN(CC(=O)O)C(=O)[C@@H]2CCCN)cc1 [compound 5],16 nM
4,COc1ccc(C[C@H](NC(=O)c2ccc(C(=N)N)cc2)C(=O)N2CCN(CC(=O)O)C(=O)[C@@H]2CCCNC(=O)c2ccc(C(=N)N)cc2)cc1 [compound 6],20 nM
5,COc1ccc(C[C@H](NC(=O)c2ccc(C(=N)N)cc2)C(=O)N2CCN(CC(=O)O)C(=O)[C@@H]2CCCCN)cc1 [compound 7],19 nM
6,COc1ccc(C[C@H](NC(=O)c2ccc(C(=N)N)cc2)C(=O)N2CCN(CC(=O)O)C(=O)[C@@H]2CCCCNC(=O)c2ccc(C(=N)N)cc2)cc1 [compound 8],12 nM
7,N=C(N)c1ccc(C(=O)NCC(=O)N2CCN(CC(=O)O)C(=O)[C@@H]2CCCNC(=O)CCCCCN)cc1 [compound 9],180 nM
8,N=C(N)c1ccc(C(=O)NCC(=O)N2CCN(CC(=O)O)C(=O)[C@@H]2CCCNC(=O)CCCCN)cc1 [compound 10],200 nM
9,N=C(N)c1ccc(C(=O)NCC(=O)N2CCN(CC(=O)O)C(=O)[C@@H]2CCCNC(=O)CCCN)cc1 [compound 11],230 nM
10,COc1ccc(C[C@H](NC(=O)c2ccc(C(=N)N)cc2)C(=O)N2CCN(CC(=O)O)C(=O)[C@@H]2CCCCNC(=N)N)cc1 [compound 12],25 nM
11,N=C(N)NCCCC(=O)NCCC[C@H]1C(=O)N(CC(=O)O)CCN1C(=O)CNC(=O)c1ccc(C(=N)N)cc1 [compound 13],110 nM
12,N=C(N)Nc1ccc(C(=O)NCCC[C@H]2C(=O)N(CC(=O)O)CCN2C(=O)CNC(=O)c2ccc(NC(=N)N)cc2)cc1 [compound 15],51 nM
13,N=C(N)Nc1ccc(C(=O)NCC[C@H]2C(=O)N(CC(=O)O)CCN2C(=O)CNC(=O)c2ccc(C(=N)N)cc2)cc1 [compound 16],44 nM
14,N=C(N)c1ccc(C(=O)NCC(=O)N2CCN(CC(=O)O)C(=O)[C@@H]2CN)cc1 [compound 17],240 nM
15,N=C(N)c1ccc(C(=O)NCC(=O)N2CCN(CC(=O)O)C(=O)[C@@H]2CNC(=O)c2ccc(C(=N)N)cc2)cc1 [compound 18],130 nM
16,N=C(N)c1ccc(C(=O)NCC[C@H]2C(=O)N(CC(=O)O)CCN2C(=O)CNC(=O)c2ccc(C(=N)N)cc2)cc1 [compound 19],180 nM
17,N=C(N)c1ccc(C(=O)NCCC[C@@H]2C(=O)N(CC(=O)O)CCN2C(=O)CNC(=O)c2ccc(C(=N)N)cc2)cc1 [compound 22],3800 nM
18,N=C(N)Nc1ccc(C(=O)NCCC[C@H]2C(=O)N(CC(=O)O)CCN2C(=O)CNC(=O)c2ccc(C(=N)N)cc2)cc1 [compound 23],17 nM
19,N=C(N)c1ccc(NC(=O)CC[C@H]2C(=O)N(CC(=O)O)CCN2C(=O)CNC(=O)c2ccc(C(=N)N)cc2)cc1 [compound 24],250 nM
20,N=C(N)Cc1ccc(C(=O)NC[C@H]2C(=O)N(CC(=O)O)CCN2C(=O)CNC(=O)c2ccc(C(=N)N)cc2)cc1 [compound 25],54 nM
21,N=C(N)NCc1ccc(C(=O)NC[C@H]2C(=O)N(CC(=O)O)CCN2C(=O)CNC(=O)c2ccc(C(=N)N)cc2)cc1 [compound 26],84 nM
22,COc1ccc(C[C@H](NC(=O)c2ccc(C(=N)N)cc2)C(=O)N2CCN(CC(=O)O)C(=O)[C@@H]2CCCNC(=O)CCCCCN)cc1 [compound 27],18 nM
23,COc1ccc(C[C@H](NC(=O)c2ccc(C(=N)N)cc2)C(=O)N2CCN(CC(=O)O)C(=O)[C@@H]2CCCCNC(=O)CN)cc1 [compound 28],19 nM
24,COC(=O)ON=C(N)c1ccc(C(=O)NCCC[C@H]2C(=O)N(CC(=O)O)CCN2C(=O)CNC(=O)c2ccc(C(N)=NOC(=O)OC)cc2)cc1 [compound 30],19000 nM
25,COC(=O)ON=C(N)c1ccc(C(=O)NCCC[C@H]2C(=O)N(CC(=O)O)CCN2C(=O)CNC(=O)c2ccc(C(=N)N)cc2)cc1 [compound 31],190 nM
26,N=C(N)c1ccc(C(=O)NCCC[C@H]2C(=O)N(CC(=O)O)CCN2C(=O)CNC(=O)c2ccc(CCN)cc2)cc1 [compound 32],53 nM

# Test system: not listed separately
# Assay: Bleeding time in guinea pigs (continuous intravenous infusion, Simplate R incision)
# Type: in vivo
# Settings: 2 μg/kg/min, continuous i.v. infusion for 90 minutes
# Protocol: (§1) Bleeding Time in Guinea Pigs and Determination of Ex Vivo Platelet Aggregation Inhibitory Action
# (§2) Male Hartley guinea pigs (body weight: about 400 g) were employed. These animals were intravenously infused continuously, under anesthesia with pentobarbital, with a physiological saline solution or receptor-antagonistdissolved in the solution at a dose of 10 μl/kg/min.
# After the continuous infusion for 90 minutes, the thigh of each animal was applied with a rubber cuff and charged with 40 mmHg, then given an incised sound with Simplate R (Organon Teknika). Thereafter, at 30 sec. each interval, blood was absorbed into a filter paper. The time until no more blood was absorbed into the filter paper was measured. The bleeding time of normal five guinea pigs was about 276 sec.
row,SMILES,Bleeding time
1,N=C(N)c1ccc(C(=O)NCCC[C@H]2C(=O)N(CC(=O)O)CCN2C(=O)CNC(=O)c2ccc(C(=N)N)cc2)cc1 [compound 2],308 ± 33 s

# Same assay, conditions: 3 μg/kg/min, continuous i.v. infusion for 90 minutes
row,SMILES,Bleeding time
1,N=C(N)Nc1ccc(C(=O)NCCC[C@H]2C(=O)N(CC(=O)O)CCN2C(=O)CNC(=O)c2ccc(NC(=N)N)cc2)cc1 [compound 15],250 ± 26 s

# Test system: ex vivo platelet aggregation
# Assay: Ex vivo platelet aggregation inhibitory action (PRP of infused guinea pigs, ADP)
# Type: in vivo
# Settings: 2 μg/kg/min, continuous i.v. infusion for 90 minutes, ADP 0.5 to 1 μM
# Protocol: as §1, §2
# After 90 minutes of the continuous infusion, blood was collected from abdominal aorta using sodium citrate (whole blood:3.15% citric acid solution=9:1 by volume). […]
# Platelet aggregation was measured by using an 8-channel photo-extinction type platelet aggregometer (NBS/HEMA TRACER 801, Niko Bioscience). […] The PRP was set in the aggregometer and incubated for two minutes at 37° C., to which was added 20 μl of ADP (0.5 to 1 μM), and the changes of transmittance were recorded. The difference of PRP and PPP in photo-extinction was assumed 100%, and, with the maximum photo-extinction rates, the maximum aggregation rates (%) were determined. The effects of the drugs were determined by comparing the maximum aggregation rates (%) of animals continuously infused with a physiological saline solution with those of animals continuously infused with receptor antagonist.
row,SMILES,Inhibitory rate (ex vivo platelet aggregation inhibition)
1,N=C(N)c1ccc(C(=O)NCCC[C@H]2C(=O)N(CC(=O)O)CCN2C(=O)CNC(=O)c2ccc(C(=N)N)cc2)cc1 [compound 2],100%

# Same assay, conditions: 3 μg/kg/min, continuous i.v. infusion for 90 minutes, ADP 0.5 to 1 μM
row,SMILES,Inhibitory rate (ex vivo platelet aggregation inhibition)
1,N=C(N)Nc1ccc(C(=O)NCCC[C@H]2C(=O)N(CC(=O)O)CCN2C(=O)CNC(=O)c2ccc(NC(=N)N)cc2)cc1 [compound 15],100%
